Experimental data published in patent publication US11723362B2, “Broad-spectrum synergistic antimicrobial compositions” (The United States of America, as represented by the …, priority 2019, dated 2023).

Assays:
[1] = test system: A. brasiliensis; test: Minimum inhibitory concentration (MIC) in Mueller-Hinton broth, pH 7.4; type: cell-based, Aspergillus brasiliensis; parameters: Minimum inhibitory concentration: unit not given here; details: for Minimum inhibitory concentration: Table 2
Protocol: (§1) This example illustrates the preparation of testing parameters for antimicrobial activity of components of the inventive composition and related compositions for comparison. […] Microbes were grown on Mueller-Hinton agar (MHA, Sigma-Aldrich, St. Louis, Mo.) for 7 days until heavy sporulation was present. Spores from two agar plates were captured in sterile phosphate-buffered saline (PBS) using a sterile swab. Spores were enumerated by serial dilution in Dey-Engley neutralizing broth (DEB; Sigma-Aldrich) and spread plating on MHA. A typical spore stock was determined to contain ˜2×10^7 spores/mL. Bacteria were grown in MH broth for 24 h at 37° C., enumerated by plating, and diluted to the desired concentration as indicated.
(§2) To assess the antimicrobial activity of hydroxamic acids and derivatives, the inhibitory properties of commercially available hydroxylamines and hydroxamic acids were compared to their alcohol and carboxylic acid analogues diluted in Mueller-Hinton broth at pH 7.4 (Table 1).

[2] = test system: Aspergillus brasiliensis ATCC 16404; test: Fungicidal activity in ionic surfactant hand wash / foamy hand soap base formula (HW); type: cell-based; details: pH 7.0; for Log reduction Week 1 / Log reduction Week 2: 1 × 10^6 CFU/mL, 25° C.; for CFU/mL, incubation time 3 d / CFU/mL, incubation time 7 d / CFU/mL, incubation time 13 d / CFU/mL, incubation time 18 d / CFU/mL, incubation time 20 d: 0.4% hydroxamic acid alone, minimum detection limit 5.0 × 10^1; for Log Reduction Day 5 / Log Reduction Day 12: substance alone 0.5%, high loading 10^7 CFU/mL
Protocol: as §1
All test formulas were adjusted to the desired pH using citric acid and/or NaOH. […] All tubes were kept at room temperature (˜21-22° C.) for 3 weeks. About 100 μL of each inoculated foamy hand soap mixture was diluted 1:10 in DEB and 100 μL of this dilution was spread plated on MHA at several time points (e.g. 3 d, 7 d, 13 d, 18 d, and 20 d). Plates were incubated at room temperature for 3-5 days for mold (1-2 days for bacteria) and colonies enumerated.
The preservative activity of a hydroxamic acid/guanylhydrazone combination was compared to other antimicrobial mixtures in an ionic surfactant-containing formula. […] The fungicidal properties of a mixture of benzhydroxamic acid and guanylhydrazone (1+7) was compared to commercial antimicrobials representing different functional classes (Table 3).

[3] = test system: Pseudomonas aeruginosa ATCC 9027; test: Bactericidal activity in ionic surfactant hand wash / foamy hand soap base formula (HW); type: cell-based; details: pH 7.0; for Day 3 Log Reduction / Day 10 Log Reduction: HW, 1 × 10^6 CFU/ml, 37° C.
Protocol: This example illustrates the preparation of testing parameters for antimicrobial activity of components of the inventive composition and related compositions for comparison. […] Mold were grown and minimum inhibitory tests performed as previously reported (see e.g., Buckley, H. L. et al. ACS Sustain. Chem. Eng. 5, 4320-4331, 2017). Microbes were grown on Mueller-Hinton agar (MHA, Sigma-Aldrich, St. Louis, Mo.) for 7 days until heavy sporulation was present. Spores from two agar plates were captured in sterile phosphate-buffered saline (PBS) using a sterile swab. Spores were enumerated by serial dilution in Dey-Engley neutralizing broth (DEB; Sigma-Aldrich) and spread plating on MHA. A typical spore stock was determined to contain ˜2×10^7 spores/mL. Bacteria were grown in MH broth for 24 h at 37° C., enumerated by plating, and diluted to the desired concentration as indicated.
To test the various compounds, a foamy hand soap base formula was made with sodium lauryl sulfate (SLS, 2.4% w/w; Sulfochem SLS-PHP [30% active], The Lubrizol Corporation, Wickliffe, Ohio) and cocoamidopropyl betaine (CAPB, 1.2% w/w; Mackam 35 [30% active], Solvay S.A, Brussels, Belgium) in deionized water and sterilized by filtration (0.22 μm, PVDF; VWR, Radnor, Pa.). All test formulas were adjusted to the desired pH using citric acid and/or NaOH. All tubes were inoculated with 250 μL of spore inoculum (described above) to a total volume of 5 mL, for a final spore concentration of ˜1×10^6 spores/mL in each tube. […] About 100 μL of each inoculated foamy hand soap mixture was diluted 1:10 in DEB and 100 μL of this dilution was spread plated on MHA at several time points (e.g. 3 d, 7 d, 13 d, 18 d, and 20 d). Plates were incubated at room temperature for 3-5 days for mold (1-2 days for bacteria) and colonies enumerated.

[4] = test system: P. aeruginosa; test: Minimum inhibitory concentration (MIC) in Mueller-Hinton broth, pH 7.4; type: cell-based, Pseudomonas aeruginosa; parameters: Minimum inhibitory concentration: unit not given here; details: for Minimum inhibitory concentration: Table 2, ATCC 9027
Protocol: as §1, §2
Guanylhydrazones 7 and 8, which represent a class of broad-spectrum antimicrobials, alone and in combination with hydroxamic acids were evaluated.

[5] = test system: E. coli; test: as above; type: cell-based, Escherichia coli
Protocol: as §1, §2

[6] = test system: C. albicans; test: as above; type: cell-based, Candida albicans
Protocol: as §1, §2

[7] = test system: S. aureus; test: as above; type: cell-based, Staphylococcus aureus
Protocol: as §1, §2

[8] = hand soap formula, 0.4% 1 alone

MIC [1]	MIC [5]	MIC [4]	MIC [6]	MIC [7]	Compound	other results
–	–	–	–	–	CCc1ccc(C(=O)NO)cc1 [4-ethylbenzhydroxamic acid 3, 4-ethylbenzhydroxamic acid]	Minimum inhibitory concentration [1]: 0.06; Log reduction Week 1 ([2]; HW, 0.2 wt %): 4 Log; Log reduction Week 2 ([2]; HW, 0.2 wt %): 1 Log; Log reduction Week 1 ([2]; HW, 0.5 wt %): 4 Log; Log reduction Week 2 ([2]; HW, 0.5 wt %): 4 Log; Day 3 Log Reduction ([3]; substance alone 0.2%): 1 Log; Day 10 Log Reduction ([3]; substance alone 0.2%): 0 Log; Minimum inhibitory concentration [4]: 0.5
–	–	–	–	–	CC(C)c1ccc(C(=O)NO)cc1 [4-isopropylbenzhydroxamic acid 5, 4-isopropylbenzhydroxamic acid]	Minimum inhibitory concentration [1]: 0.04; CFU/mL, incubation time 3 d ([2]; hand soap formula): >2.5 × 10^4 CFU/mL; CFU/mL, incubation time 7 d ([2]; hand soap formula): 1.0 × 10^4 CFU/mL; CFU/mL, incubation time 13 d ([2]; hand soap formula): 1.0 × 10^2 CFU/mL; CFU/mL, incubation time 18 d ([2]; hand soap formula): <5.0 × 10^1 CFU/mL; CFU/mL, incubation time 20 d ([2]; hand soap formula): <5.0 × 10^1 CFU/mL
–	–	–	–	–	Cc1ccc(C(=O)NO)cc1 [4-methylbenzhydroxamic acid 2, 4-methylbenzhydroxamic acid]	Minimum inhibitory concentration [1]: 0.02; Log reduction Week 1 ([2]; HW, 0.2 wt %): 4 Log; Log reduction Week 2 ([2]; HW, 0.2 wt %): 4 Log; Day 3 Log Reduction ([3]; substance alone 0.2%): 2 Log; Day 10 Log Reduction ([3]; substance alone 0.2%): 4 Log; Minimum inhibitory concentration [4]: 0.3
–	–	–	–	–	CCCCc1ccc(C(=O)NO)cc1 [4-n-butylbenzhydroxamic acid 6, 4-n-butylbenzhydroxamic acid]	Minimum inhibitory concentration [1]: 0.008; Log reduction Week 1 ([2]; HW, 0.4 wt %): 4 Log; Log reduction Week 2 ([2]; HW, 0.4 wt %): none; Day 3 Log Reduction ([3]; substance alone 0.4%): 0 Log; Day 10 Log Reduction ([3]; substance alone 0.4%): 0 Log; Minimum inhibitory concentration [4]: 0.1
–	–	–	–	–	CCCc1ccc(C(=O)NO)cc1 [4-n-propylbenzhydroxamic acid 4, 4-n-propylbenzhydroxamic acid]	Minimum inhibitory concentration [1]: 0.02; CFU/mL, incubation time 3 d ([2]; hand soap formula): >2.5 × 10^4 CFU/mL; CFU/mL, incubation time 7 d ([2]; hand soap formula): >2.2 × 10^4 CFU/mL; CFU/mL, incubation time 13 d ([2]; hand soap formula): 5.0 × 10^2 CFU/mL; CFU/mL, incubation time 18 d ([2]; hand soap formula): 1.5 × 10^2 CFU/mL; CFU/mL, incubation time 20 d ([2]; hand soap formula): <5.0 × 10^1 CFU/mL
0.2 wt %	0.1 wt %	0.06 wt %	0.2 wt %	0.06 wt %	CC(=O)O [Acetic acid]	–
0.5 wt %	0.5 wt %	0.5 wt %	0.2 wt %	0.5 wt %	CC(=O)NO [Acetohydroxamic acid]	–
0.02 wt %	0.5 wt %	0.1 wt %	0.03 wt %	0.06 wt %	O=C(NO)c1ccccc1 [Benzhydroxamic acid 1, Benzhydroxamic acid]	Minimum inhibitory concentration [1]: 0.02; Log reduction Week 1 ([2]; HW, 0.5 wt %): 1 Log; Log reduction Week 2 (day 12) ([2]; HW, 0.5 wt %, day 12): 4 Log; Log Reduction Day 5 ([2]; HW): 1 Log; Log Reduction Day 12 ([2]; HW): 4 Log; CFU/mL after 7 d contact time [2, 8]: 1 × 10^3 CFU/mL; CFU/mL after 7 d contact time [3, 8]: 2 × 10^4 CFU/mL; Minimum inhibitory concentration [4]: 0.1
0.5 wt %	0.5 wt %	0.2 wt %	0.5 wt %	0.5 wt %	OCc1ccccc1 [Benzyl alcohol]	–
0.5 wt %	0.5 wt %	0.5 wt %	0.5 wt %	0.5 wt %	CCCCCCCC(=O)O [Caprylic acid]	–
–	–	–	–	–	CCCCCCC(O)CO (centres unmarked) [Caprylyl Glycol]	Log Reduction Day 5 ([2]; HW): 0 Log; Log Reduction Day 12 ([2]; HW): 1 Log
0.47 wt %	–	10 wt %	10 wt %	10 wt %	CCO [Ethanol]	–
0.2 wt %	0.5 wt %	0.2 wt %	0.5 wt %	0.5 wt %	Cl.ONCc1ccccc1 [N-benzylhydroxylamine HCl]	–
>0.5 wt %	>0.5 wt %	0.5 wt %	–	0.5 wt %	O=C1CCC(=O)N1O [N-hydroxysuccinimide]	–
0.2 wt %	0.2 wt %	0.2 wt %	0.5 wt %	0.2 wt %	Cl.NOCc1ccccc1 [O-benzylhydroxylamine HCl]	–
0.06 wt %	0.3 wt %	0.2 wt %	0.1 wt %	>0.5 wt %	Cl.NOc1ccccc1 [O-phenylhydroxylamine HCl]	–
–	–	–	–	–	CCCOC(=O)c1cc(O)c(O)c(O)c1 [Propyl gallate]	Log Reduction Day 5 ([2]; HW): 1 Log; Log Reduction Day 12 ([2]; HW): 1 Log
0.5 wt %	0.2 wt %	0.2 wt %	0.5 wt %	0.1 wt %	O=C(O)c1ccccc1O [Salicylic acid]	–
0.5 wt %	>0.5 wt %	0.5 wt %	0.5 wt %	0.5 wt %	O=C(CCCCCCC(=O)NO)NO [Suberohydroxamic acid]	–
–	–	–	–	–	Sorbitan caprylate	Log Reduction Day 12 ([2]; HW): 0 Log

Compound	MIC [1]	MIC [5]	MIC [4]	MIC [6]	MIC [7]	other results
O=C(O)c1ccccc1 [Benzoic acid]	0.2 wt %	0.2 wt %	0.2 wt %	0.2 wt %	0.2 wt %	–
CO [Methanol]	0.5 wt %	–	20 wt %	20 wt %	20 wt %	–
CCON.Cl [O-ethylhydroxylamine HCl]	0.1 wt %	0.1 wt %	0.1 wt %	0.2 wt %	0.1 wt %	–
CON.Cl [O-methylhydroxylamine HCl]	0.1 wt %	0.2 wt %	0.1 wt %	0.5 wt %	0.06 wt %	–
CC(C)(C)ON.Cl [O-tert-butylhydroxylamine HCl]	0.5 wt %	0.5 wt %	0.2 wt %	0.5 wt %	0.1 wt %	–
Oc1ccccc1 [Phenol]	0.1 wt %	>0.5 wt %	0.2 wt %	0.2 wt %	0.2 wt %	–
CC(C)(C)O [t-Butanol]	>0.5 wt %	>0.5 wt %	20 wt %	0.5 wt %	5 wt %	–
